The subject of assay [1] is Staphylococcus aureus. In words: Antimicrobial activity against methicillin-resistant Staphylococcus aureus effluxing isolate. In kind it is functional.
The subject of assay [2] is Staphylococcus aureus. In words: Inhibition of multidrug-resistant efflux pump in methicillin-resistant Staphylococcus aureus effluxing isolate assessed as fold reduction of chlorehexidin MIC at 10 ug/ml by microdilution method. In kind it is functional. (In general: Dilution methods test growth across graded concentrations, often in twofold steps.)
Assay [3] deals with Staphylococcus aureus. Description: Inhibition of multidrug-resistant efflux pump in methicillin-resistant Staphylococcus aureus effluxing isolate assessed as fold reduction of dequalinium MIC at 10 ug/ml by microdilution method. In kind it is functional.
Assay [4] has as its system Staphylococcus aureus. In words: Inhibition of multidrug-resistant efflux pump in methicillin-resistant Staphylococcus aureus effluxing isolate assessed as fold reduction of acriflavine MIC at 10 ug/ml by microdilution method. In kind it is functional.
Assay [5] has as its system Staphylococcus aureus. In words: Inhibition of multidrug-resistant efflux pump in methicillin-resistant Staphylococcus aureus effluxing isolate assessed as fold reduction of ethidium-bromide MIC at 10 ug/ml by microdilution method. In kind it is functional.
The test system of assay [6] is Staphylococcus aureus. Description: Inhibition of multidrug-resistant efflux pump in methicillin-resistant Staphylococcus aureus effluxing isolate assessed as fold reduction of Norfloxacin MIC at 10 ug/ml by microdilution method. In kind it is functional.
For assay [7], the system named is Staphylococcus aureus. In words: Inhibition of multidrug-resistant efflux pump in methicillin-resistant Staphylococcus aureus effluxing isolate assessed as fold reduction of tetraphenylphosphonium bromide MIC at 10 ug/ml by microdilution method. In kind it is functional.
Assay [8] deals with Staphylococcus aureus. In words: Inhibition of multidrug-resistant efflux pump in methicillin-resistant Staphylococcus aureus effluxing isolate assessed as fold reduction of citramide MIC at 10 ug/ml by microdilution method. Format: functional, organism-based.

Values after ≈ are worked out from the molar mass of the structure shown.

For orientation: MIC50 means an inhibitory concentration at the 50% level, which refers to growth in some studies and to a panel of isolates in others. A lower MIC50 goes with greater potency. A word on the MIC90: it is an inhibitory concentration at the 90% level, which refers to growth in some studies and to a panel of isolates in others. A lower MIC90 goes with greater potency. For the molecule `N=C(NCCCCCCNC(=N)NC(=N)Nc1ccc(Cl)cc1)NC(=N)Nc1ccc(Cl)cc1` [CHLORHEXIDINE], in the assay on Staphylococcus aureus [1], the MIC50 worked out at 0.31 µg/mL (≈ 0.613 µM) and the MIC90 amounted to 0.63 µg/mL (≈ 1.25 µM). Further, the “fold change (FC)” value with Staphylococcus aureus [2] turned out to be 8.
Regarding `Cc1cc(N)c2ccccc2[n+]1CCCCCCCCCC[n+]1c(C)cc(N)c2ccccc21.[Cl-].[Cl-]` [DEQUALINIUM CHLORIDE], in the assay on Staphylococcus aureus [1], the MIC50 is 1.25 µg/mL and the MIC90 was 5 µg/mL. For the same molecule, the “fold change (FC)” value in the assay with Staphylococcus aureus [3] is given as 4.
As to `C[n+]1c2cc(N)ccc2cc2ccc(N)cc21.[Cl-]` [EUFLAVINE], the “fold change (FC)” value in the assay on Staphylococcus aureus [4] worked out at 4. Moreover, in the assay on Staphylococcus aureus [1], the MIC50 was 12.5 µg/mL and the MIC90 was 50 µg/mL.
`CC[n+]1c(-c2ccccc2)c2cc(N)ccc2c2ccc(N)cc21.[Br-]` [HOMIDIUM BROMIDE]: the “fold change (FC)” value in the assay with Staphylococcus aureus [5] was 8. Besides, in the assay with Staphylococcus aureus [1], the MIC50 came to 6.25 µg/mL and the MIC90 was 25 µg/mL.
In the assay with Staphylococcus aureus [1], `CCn1cc(C(=O)O)c(=O)c2cc(F)c(N3CCNCC3)cc21` [NORFLOXACIN] returned an MIC50 of 12.5 µg/mL (≈ 39.1 µM) and an MIC90 of more than 100 µg/mL. In addition, the “fold change (FC)” value in the assay on Staphylococcus aureus [6] came out at 4.
Regarding `[Br-].c1ccc([P+](c2ccccc2)(c2ccccc2)c2ccccc2)cc1` [TETRAPHENYLPHOSPHONIUM BROMIDE], in the assay with Staphylococcus aureus [1], the MIC50 was 25 µg/mL and the MIC90 was 50 µg/mL. In addition, the “fold change (FC)” value with Staphylococcus aureus [7] was 4.
Consider CETRIMIDE, for which, in the assay on Staphylococcus aureus [1], the MIC50 came out at 0.63 µg/mL and the MIC90 was determined as 1.25 µg/mL. Further, the fold change (FC) in the assay on Staphylococcus aureus [8] was found to be 4.

(Values after ChEMBL document CHEMBL1143409, “Efflux-related resistance to norfloxacin, dyes, and biocides in bloodstream isolates of Staphylococcus aureus” (2007).)
